Test results: paper PMC6934184, “Selective DNA-PKcs inhibition extends the therapeutic index of localized radiotherapy and chemotherapy” (The Journal of Clinical Investigation, 2019)

Molecular target: T1, EGFR (ErbB1) d746-750 (Homo sapiens, UniProt P00533, DEL746-750)
T1 construct: purchased Thermo Fisher Scientific (Life Technologies) SelectScreen
Test: SelectScreen LanthaScreen
Type: binding
Conditions: 1 µM
Outline: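 Percent values come from Thermo SelectScreen profiling of NU5455, combining activity and binding assays. CSF1R was run in Z'LYTE format at Km app ATP, and CAMK1 in Adapta format with ATP listed at 10.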

T1 sequence (P00533 with tags, fused parts or gaps DEL746-750 limits assumed): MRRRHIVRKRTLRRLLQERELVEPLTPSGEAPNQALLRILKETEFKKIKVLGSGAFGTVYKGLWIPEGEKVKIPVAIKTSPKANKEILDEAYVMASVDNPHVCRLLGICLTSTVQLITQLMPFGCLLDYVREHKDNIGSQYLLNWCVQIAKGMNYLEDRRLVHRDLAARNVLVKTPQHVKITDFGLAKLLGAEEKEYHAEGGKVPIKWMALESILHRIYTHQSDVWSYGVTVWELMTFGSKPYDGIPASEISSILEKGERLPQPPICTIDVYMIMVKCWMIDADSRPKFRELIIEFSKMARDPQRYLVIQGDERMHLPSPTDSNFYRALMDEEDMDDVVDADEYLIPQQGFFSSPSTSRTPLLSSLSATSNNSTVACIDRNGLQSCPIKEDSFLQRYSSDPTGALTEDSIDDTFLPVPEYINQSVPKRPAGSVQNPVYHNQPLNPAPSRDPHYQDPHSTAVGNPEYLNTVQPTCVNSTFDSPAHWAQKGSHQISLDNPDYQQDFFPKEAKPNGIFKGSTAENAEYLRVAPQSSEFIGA

For `CN(C(=O)CN1CCOCC1)c1ccc2sc3c(-c4cccc5c(=O)cc(N6CC7CCC(C6)O7)oc45)cccc3c2c1` [NU5455], the “% displacement” value was 5.8%.
